Measured values reported in the supplement of paper PMC10307832.

Experiments:
Assay in all cases: relative viability (nuclei count vs DMSO), 5 days (fraction); higher = more cells survive
IPA-3 + Foretinib = compound: C1=CC=C2C(=C1)C=CC(=C2SSC3=C(C=CC4=CC=CC=C43)O)O [IPA-3] + COc1cc2c(Oc3ccc(NC(=O)C4(C(=O)Nc5ccc(F)cc5)CC4)cc3F)ccnc2cc1OCCCN1CCOCC1 [Foretinib] (partner 0.25 µM)
How it was run: (§1)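 Each reported value is a median over duplicate plates. It expresses relative viability: treated-well nuclei count divided by vehicle-well nuclei count. Lung cancer cell lines in 1536-well plates were dosed by pin tool a day after seeding, alone with one drug or with a fixed anchor-drug dose plus five library-drug doses (not always all listed) in √10 steps, and nuclei were counted after 5 days.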

Doramapimod + Foretinib = compound: Cc1ccc(-n2nc(C(C)(C)C)cc2NC(=O)Nc2ccc(OCCN3CCOCC3)c3ccccc23)cc1 [Doramapimod] + COc1cc2c(Oc3ccc(NC(=O)C4(C(=O)Nc5ccc(F)cc5)CC4)cc3F)ccnc2cc1OCCCN1CCOCC1 [Foretinib] (partner 0.25 µM)
How it was run: as §1

RAF265 + Bortezomib = compound: Cn1c(Nc2ccc(C(F)(F)F)cc2)nc2cc(Oc3ccnc(-c4ncc(C(F)(F)F)[nH]4)c3)ccc21 [RAF265] + CC(C)C[C@H](NC(=O)[C@H](Cc1ccccc1)NC(=O)c1cnccn1)B(O)O [Bortezomib] (partner 0.002 µM)
How it was run: as §1

RAF265 + Luminespib = compound: Cn1c(Nc2ccc(C(F)(F)F)cc2)nc2cc(Oc3ccnc(-c4ncc(C(F)(F)F)[nH]4)c3)ccc21 [RAF265] + CCNC(=O)c1noc(-c2cc(C(C)C)c(O)cc2O)c1-c1ccc(CN2CCOCC2)cc1 [Luminespib] (partner 0.01 µM)
How it was run: as §1

Row | Cell Line | relative viability (IPA-3 + Foretinib; first compound 0.2 µM) | relative viability (IPA-3 + Foretinib; first compound 0.6325 µM) | relative viability (IPA-3 + Foretinib; first compound 2 µM) | relative viability (IPA-3 + Foretinib; first compound 6.325 µM) | relative viability (IPA-3 + Foretinib; first compound 20 µM) | relative viability (Doramapimod + Foretinib; first compound 0.02 µM) | relative viability (Doramapimod + Foretinib; first compound 0.06325 µM) | relative viability (Doramapimod + Foretinib; first compound 0.2 µM) | relative viability (Doramapimod + Foretinib; first compound 0.6325 µM) | relative viability (Doramapimod + Foretinib; first compound 2 µM) | relative viability (RAF265 + Bortezomib; first compound 0.01 µM) | relative viability (RAF265 + Bortezomib; first compound 0.03162 µM) | relative viability (RAF265 + Bortezomib; first compound 0.1 µM) | relative viability (RAF265 + Bortezomib; first compound 0.3162 µM) | relative viability (RAF265 + Bortezomib; first compound 1 µM) | relative viability (RAF265 + Luminespib; first compound 0.01 µM) | relative viability (RAF265 + Luminespib; first compound 0.03162 µM) | relative viability (RAF265 + Luminespib; first compound 0.1 µM) | relative viability (RAF265 + Luminespib; first compound 0.3162 µM) | relative viability (RAF265 + Luminespib; first compound 1 µM)
1 | NCI-H2009 | 1.32 | 1.15 | 1.23 | 1.16 | 1.29 | 1.21 | 1.25 | 1.21 | 1.36 | 1.2 | 1.05 | 0.981 | 0.905 | 0.899 | 0.657 | 1.05 | 0.95 | 0.975 | 1.03 | 0.883
2 | NCI-H1651 | 0.981 | 0.717 | 0.967 | 0.952 | 1.04 | 0.912 | 0.777 | 0.841 | 0.793 | 0.869 | 0.981 | 0.978 | 0.974 | 0.897 | 0.932 | 1 | 0.812 | 0.971 | 0.807 | 0.714
3 | HARA | 1.23 | 0.854 | 0.943 | 0.855 | 1.31 | 0.88 | 0.841 | 0.767 |  | 0.746 | 1.12 | 1.1 | 1.1 | 0.809 | 0.801 | 0.64 | 0.627 | 0.476 | 0.509 | 0.165
4 | NCI-H2347 | 1.24 | 0.916 | 0.908 | 0.902 | 0.899 |  | 1.03 | 1.1 | 0.861 | 1.11 | 0.801 | 1.03 | 1.09 | 0.809 | 0.573 | 0.445 | 0.775 | 0.849 | 0.337 | 0.234
5 | 201T | 1.33 | 1.11 | 1.17 | 1.09 | 1.15 | 1.01 | 1.03 | 1.1 | 1.41 | 0.974 | 1.08 | 1.1 | 1.07 | 1.11 | 1.1 | 1.07 | 0.972 | 1.03 | 0.995 | 0.997
6 | PC-14 | 1.07 | 0.938 | 0.941 | 0.874 | 1.07 | 0.939 | 1.03 | 0.997 | 1.13 | 0.91 | 0.798 | 0.726 | 0.886 | 0.953 | 0.693 | 0.163 | 0.128 | 0.248 |  | 0.139
7 | NCI-H1650 | 1.27 | 1.29 | 1.39 | 1.03 | 1.45 | 1.06 | 1.26 | 1.36 | 1.41 | 1.21 | 0.224 | 0.222 | 0.224 | 0.207 | 0.216 | 0.176 | 0.208 | 0.192 | 0.205 | 0.216
8 | NCI-H727 | 0.898 | 0.81 | 1.17 | 0.615 | 0.73 | 0.665 | 0.857 | 0.857 | 1.05 | 0.801 | 0.855 | 0.783 | 0.908 | 0.796 | 0.456 | 0.332 | 0.345 | 0.6 | 0.383 | 0.263
9 | COR-L23 | 1.12 | 0.964 | 1.04 | 0.928 | 0.906 | 0.945 | 0.926 | 0.966 | 1.01 | 0.855 | 1.05 | 0.87 | 0.964 | 0.706 | 0.511 | 0.637 | 0.655 | 0.539 | 0.33 | 0.324
10 | ChaGo-K-1 | 0.933 | 0.875 | 0.996 | 0.93 | 1.14 | 0.922 | 0.907 | 0.892 | 0.949 | 0.831 | 0.92 | 1.08 | 1.12 | 1.03 | 0.662 | 0.722 | 0.666 | 0.575 | 0.545 | 0.396
11 | HOP-62 | 1.28 | 1.04 | 1.21 | 1.09 | 1.19 | 1.15 | 1.05 | 1.11 | 1.14 | 1.08 | 1.15 |  | 1.05 | 0.674 | 0.788 | 0.988 | 0.879 | 0.93 | 0.774 | 0.688
12 | NCI-H1915 | 1.13 | 1.06 | 1.08 | 1.11 | 1.11 | 1.02 | 1.13 | 1.18 | 1.12 | 0.995 | 0.96 | 0.95 | 0.887 | 0.816 | 0.417 | 0.819 | 0.728 | 0.616 | 0.258 | 0.188
13 | BEN | 0.733 | 0.598 | 0.729 | 0.889 | 0.614 | 0.663 | 0.639 | 0.603 | 0.469 | 0.676 | 0.993 | 0.878 | 0.777 | 0.85 | 0.547 | 0.402 | 0.491 | 0.534 | 0.224 | 0.325
14 | NCI-H1437 | 1.37 | 1.23 | 1.32 | 1.2 | 1.35 | 1.37 | 1.39 | 1.35 | 1.38 | 1.2 | 0.541 | 0.528 | 0.419 | 0.56 | 0.343 | 1.02 | 1.07 | 1.08 | 1.23 | 1.11
